From ChEMBL document CHEMBL1857833, “Screening and optimization of specific chemical series against human African Trypanosomiasis (HAT)” come the findings set out here.

A short description of data set [1]: DNDI: % of compound remaining in rat S9 microsomes at a concentration of 1uM. The class given is ADME, subcellular, Liver, S9 fraction.
Data set [2] can be described thus: DNDI: Cytotoxicity against L929 mouse fibroblasts, 72 hour. The settings on record: mouse, L929 mouse fibroblasts. The class given is toxicity, cell-based.
A short description of data set [3]: DNDI: Solubility in phosphate buffered saline at pH7.4 measured by nephelometry at room temperature (NEPH-RT). The class given is physicochemical. The settings on record: pH 7.4.
For data set [4], the system named is Trypanosoma brucei. The data set can be described thus: DNDI: Inhibition of Human African Trypanosomiasis, SBRI 427, in vitro. The class given is functional, organism-based.
The nature of data set [5]: DNDI: Lipophilicity measured in Chromatographic hydrophobicity index (CHI) assay, pH 7.4. The class given is physicochemical. The note with it: buffer.
The conditions of data set [6]: mouse, microsomes, 1 µM.
Description: DNDI: in vitro intrinsic clearance in mouse liver microsomes at a concentration of 1uM
Another data set in a line: in vitro. The settings on record: mouse, liver microsomes, t (1 / 2).
The nature of data set [7]: DNDI: half-life in mouse S9 microsomes at a concentration of 1uM. The class given is ADME, subcellular, Liver, S9 fraction.
Data set [8] can be described thus: DNDI: % of compound remaining in mouse S9 microsomes at a concentration of 1uM after 60 mins. The class given is ADME, subcellular, Liver, S9 fraction.
The test system of data set [9] is Trypanosoma brucei. The data set can be described thus: (§1) DNDI: Mean survival time in days (MSD) of mice after intraperitoneal injection of Human African Trypanosomiasis (HAT), EATRO 110, in vivo at 20 mg/kg/day for 4 days. The class given is functional, Mus musculus.
The nature of data set [10]: DNDI: Cytotoxicity against L929 mouse fibroblasts, CYTO-SP, 24 hour. The class given is toxicity, cell-based. The note with it: mouse, L929 mouse fibroblasts.
In data set [11] the test system is Trypanosoma brucei. The data set is described as §1. The class given is functional, Mus musculus. This is another data set of the same source.
Data set [12] can be described thus: DNDI: Solubility in phosphate buffered saline at pH7.4 measured by optical density (turbidimetry) at room temperature (OD-RT). The class given is physicochemical. The note with it: pH 7.4.
A short description of data set [13]: DNDI: in vitro intrinsic clearance in human liver microsomes at a concentration of 10uM. The class given is ADME, Microsome. A general note: Liver microsomes are vesicles of endoplasmic reticulum, rich in cytochrome P450 enzymes.
In data set [14] the test system is Trypanosoma brucei rhodesiense. The data set can be described thus: DNDI: Inhibition of Human African Trypanosomiasis (HAT), STIB 900, in vitro. The class given is functional, organism-based.
A short description of data set [15]: DNDI: half life in mouse liver microsomes at a concentration of 10uM. The class given is ADME, Microsome.
The next data set concerns Leishmania donovani. The data set can be described thus: DNDI: Inhibition of formation of Leishmania donovani (strain MHOM/ET/67/L82) axenic amastigotes, in vitro. The class given is functional, organism-based.
Data set [16] can be described thus: DNDI: half life in human liver microsomes at a concentration of 10uM. The class given is ADME, Microsome.
In a further data set the test system is Plasmodium falciparum. The data set can be described thus: DNDI: Inhibition of the malaria parasite Plasmodium falciparum, in vitro. The class given is functional, organism-based. The note with it: K1.
A further data set has as its system Trypanosoma cruzi. The data set can be described thus: DNDI: Inhibition of Chagas Disease parasite Trypanosoma cruzi (Tulahuen LacZ, Clone C4), in vitro. The class given is functional, organism-based.
A short description of data set [17]: DNDI: Cytotoxicity against L-6 rat myoblasts from skeletal muscle cells. The class given is toxicity, cell-based, L6. The note with it: L-6 rat skeletal muscle myoblasts.
The nature of data set [18]: DNDI: in vitro intrinsic clearance in mouse liver microsomes at a concentration of 10uM. The class given is ADME, Microsome. The settings on record: read-out: CLint in vitro.
For data set [19], the system named is Trypanosoma brucei. The data set can be described thus: DNDI: Inhibition of Human African Trypanosomiasis, Cross 22, in vitro. The class given is functional, organism-based.
In data set [20] the test system is Trypanosoma brucei. The data set can be described thus: DNDI: Inhibition of Human African Trypanosomiasis, EATRO 110, in vitro. The class given is functional, organism-based.
[21] abbreviates: Trypanosoma brucei, SBRI 427, read-out: IC50.

Values after ≈ are worked out from the molar mass of the structure shown. Values joined by “and” are separate entries in the source; they are usually repeats but may differ in a detail not shown here. Equal entries are not always repeated.

Usually IC50 stands for the concentration that gives 50% inhibition. As usually defined, the solubility (kinetic) is solubility judged after dilution from a stock solution rather than from solid. Broadly, the chromatographic logD is lipophilicity estimated from chromatographic retention. What is called half-life is how long it takes for the measured level to halve. Higher therefore signals slow loss.

Description for in vitro: DNDI: half life in mouse liver microsomes at a concentration of 1uM

Regarding `Cc1ccc(Oc2ncccc2/C(=N/O)NC2CCCCC2)cc1`, the fraction remaining at 1 µM in [1] was 0%. The IC50 at 72 h in data set [2] was > 10 µg/mL. Moreover, the kinetic solubility in data set [3] was found to be 25 µM (≈ 8.14 µg/mL). The IC50 in the data set on Trypanosoma brucei [4] (setting [21]) is 0.16 µg/mL (≈ 0.492 µM). The compound also had a chromatographic logD in [5] of 4.32. Moreover, in [6], the CLint in vitro was 244.61 µL/min/mg. Also, in the data set “in vitro”, the half-life at 1 µM stood at 3.48 min.

With `c1ccc2c(Oc3nc(NCCN4CCCC4)nc4ccsc34)cccc2c1`, the IC50 at 72 h in data set [2] is > 10 µg/mL. The IC50 with Trypanosoma brucei [4] (setting [21]) came out at 1.06 µg/mL (≈ 2.71 µM). In data set [7], this compound had a half-life at 1 µM of 3.5 min.

On to `CCCCCC(C)NCc1coc(-c2ccc(Oc3ccccc3)cc2)n1` (stereo not given), for which the share remaining at 1 µM in data set [1] worked out at 0%. For the same compound, the IC50 at 72 h in [2] amounted to 1.6 µg/mL (≈ 4.39 µM). This compound showed a kinetic solubility in [3] of 6 µM (≈ 2.19 µg/mL). Also, the IC50 in the data set with Trypanosoma brucei [4] (setting [21]) came out at 0.42 µg/mL (≈ 1.15 µM). Further, the amount remaining at 1 h, 1 µM in data set [8] stood at 59.9%. In addition, in [5], the chromatographic logD was found to be 4.67. The compound further gave a CLint in vitro in [6] of 28 µL/min/mg. The compound further yielded a half-life at 1 µM in the data set “in vitro” of 31 min.

With `CCCCc1ccc(-c2nc(CNCc3c(OC)cccc3OC)co2)cc1`, in [1], the fraction remaining at 1 µM came to 0.169%. The compound further gave an IC50 at 72 h in data set [2] of 1.62 µg/mL (≈ 4.26 µM). This compound also gave a solubility (kinetic) in data set [3] of 6 µM (≈ 2.28 µg/mL). Further, in the data set with Trypanosoma brucei [4] (setting [21]), the IC50 came to 0.32 µg/mL (≈ 0.841 µM). Also, in data set [8], the share remaining at 1 h, 1 µM stood at 18.7%. Besides, the chromatographic logD in data set [5] is > 5.2. The compound further yielded an MSD with Trypanosoma brucei [9] of 4.5 days. Besides, in data set [6], the CLint in vitro worked out at 65 µL/min/mg. For the same compound, the half-life at 1 µM in the data set “in vitro” stood at 13 min.

On to `CCCCCOc1ccc(-c2nc(CNC[C@@H]3CC[C@H]4C[C@@H]3C4(C)C)co2)cc1`, for which the IC50 at 72 h in data set [2] is < 3.13 µg/mL. For the same compound, the kinetic solubility in data set [3] was < 1 µM. The IC50 in the data set with Trypanosoma brucei [4] (setting [21]) amounted to 0.08 µg/mL (≈ 0.202 µM). The compound further registered a chromatographic logD in [5] of 6.45. The IC50 at 24 h in [10] is > 50 µg/mL. In data set [6], this compound yielded a CLint in vitro of 74 µL/min/mg. The same compound showed an MSD with Trypanosoma brucei [11] of 4 days. In “in vitro”, this compound gave a half-life at 1 µM of 12 min.

Take `O/N=C(\NC1CCCCC1)c1ccccc1-c1ccccc1`: in [1], the amount remaining at 1 µM was 0%. For the same compound, the IC50 at 72 h in data set [2] was > 10 µg/mL. The solubility (kinetic) in [12] was determined as 6.3 µM (≈ 1.85 µg/mL). Moreover, the CLint in vitro in data set [13] was 5 µL/min/mg; in data set [6] it was 119 µL/min/mg. The IC50 in the data set on Trypanosoma brucei [4] (setting [21]) was 0.62 µg/mL (≈ 2.11 µM); in data set [14], 50.4 µg/mL (≈ 171 µM); in the data set on Leishmania donovani, 27.6 µg/mL (≈ 93.7 µM); in the data set on Plasmodium falciparum, 2.78 µg/mL (≈ 9.44 µM); in the data set on Trypanosoma cruzi, 7.25 µg/mL (≈ 24.6 µM); in data set [17], 41.7 µg/mL (≈ 142 µM). In [8], the fraction remaining at 1 h, 1 µM came to 6.85%. The chromatographic logD in [5] was 4.53. This compound returned an IC50 at 24 h in data set [10] of 50 µg/mL (≈ 170 µM). Further, the results for the half-life at 10 µM in data set [15] and in data set [16] were 57 min and 557 min, respectively. This compound displayed a half-life at 1 µM in the data set “in vitro” of 7 min. Moreover, the microsomal CLint at 10 µM in data set [18] was 51 µL/min/mg.

Regarding `CC(C)Oc1ccc(-c2nc(CNC3CCCCCC3)co2)cc1`, the IC50 at 72 h in [2] came out at 6.77 µg/mL (≈ 20.6 µM). The IC50 in the data set on Trypanosoma brucei [4] (setting [21]) amounted to 2.39 µg/mL (≈ 7.28 µM). Besides, the MSD in the data set on Trypanosoma brucei [9] and in the data set on Trypanosoma brucei [11] was 4 days each time. In addition, the CLint in vitro in data set [6] was 12 µL/min/mg. The compound further showed a half-life at 1 µM in the data set “in vitro” of 68 min.

`CCOc1ccc(-c2nc(CNC3[C@H]4C[C@@H]5C[C@@H](C[C@H]3C5)C4)co2)cc1` (stereo not given in full) gave an IC50 at 72 h in data set [2] of 6.6 µg/mL (≈ 18.7 µM). In addition, the IC50 with Trypanosoma brucei [4] is 1.46 µg/mL and 2 µg/mL; in the data set on Trypanosoma brucei [4] (setting [21]) it was 1.21 µg/mL (≈ 3.43 µM); with Trypanosoma brucei [19], 2.15 µg/mL (≈ 6.1 µM); in the data set with Trypanosoma brucei [20] it was 0.86 µg/mL (≈ 2.44 µM). For the same compound, half-maximal inhibition in data set [10] (IC50 at 24 h) was put at 43.2 µg/mL (≈ 123 µM). For the same compound, in data set [6], the CLint in vitro is 102 µL/min/mg. In addition, the half-life at 1 µM in “in vitro” amounted to 8 min.

`CC1CC(NCc2coc(-c3ccc(-c4ccccc4)cc3)n2)CC(C)(C)C1` (stereo not given): the fraction remaining at 1 µM in data set [1] stood at 105%. Further, in [2], the IC50 at 72 h was < 3.13 µg/mL. For the same compound, the IC50 with Trypanosoma brucei [4] is 0.24 µg/mL and 0.16 µg/mL; in the data set on Trypanosoma brucei [4] (setting [21]) it was 0.27 µg/mL (≈ 0.721 µM); in the data set with Trypanosoma brucei [19] it was 0.25 µg/mL (≈ 0.668 µM). Besides, in data set [8], the amount remaining at 1 h, 1 µM was found to be 112%. Besides, in data set [10], half-maximal inhibition (IC50 at 24 h) was put at 7.93 µg/mL (≈ 21.2 µM). Moreover, the CLint in vitro in data set [6] turned out to be 6 µL/min/mg. In addition, the half-life at 1 µM in the data set “in vitro” worked out at 154 min.

`CCCCc1ccc(-c2nc(CNC3[C@H]4C[C@@H]5C[C@@H](C[C@H]3C5)C4)co2)cc1` (stereo not given in full): the IC50 is 0.77 ug/ml [middle of 4 runs] in the data set on Trypanosoma brucei [4]; 0.44 µg/mL (≈ 1.21 µM) with Trypanosoma brucei [19]; 0.727 µg/mL (≈ 1.99 µM) in data set [14]; 9.58 µg/mL (≈ 26.3 µM) in the data set on Leishmania donovani; 0.738 µg/mL (≈ 2.02 µM) in the data set with Plasmodium falciparum; 3.9 µg/mL (≈ 10.7 µM) in the data set with Trypanosoma cruzi. Moreover, in [17], the IC50 came out at 8.8 µg/mL (≈ 24.1 µM). For the same compound, the 50% inhibitory concentration (IC50) at 24 h in data set [10] was > 50 µg/mL. Moreover, in the data set on Trypanosoma brucei [11], the MSD was 4 days.
